# Reference: US5284999A, “DNA encoding a pituitary-specific thyroid hormone receptor” (Brigham and Women's Hospital, priority 1993, dated 1994)
# Tested on: r-ErbAβ-2 protein (PSTHR, pituitary-specific thyroid hormone receptor)
# Assay: Competition experiments with thyroid hormone analogs on r-ErbAβ-2 protein
# Assay type: binding, rat
smiles,measurement,value
"O=C(O)Cc1cc(I)c(Oc2ccc(O)c(I)c2)c(I)c1 [triac, 3,5,3'-triiodothyrocetic acid]",affinity of the r-ErbAβ-2 protein (rank order among analogs),greatest
